According to patent publication US20040152708A1, “Trans-9,10-dehydroepothilone C and D, analogs thereof and methods of making the same” (priority 2002, published 2004):
Values after ≈ are worked out from the molar mass of the structure shown.

Tests used:
CYP2C19 = target: T1, CYP2C19 (Homo sapiens, UniProt P33261); assay: Cytochrome P450 inhibition, CYP2C19; assay type: in vitro ADME; settings: human
T1 construct: purchased BD GenTest, Woburn, Mass

[1] = Compound solubility in phosphate-buffered saline; assay type: physicochemical; settings: aqueous buffer, kinetic from dmso stock; 5 μL of 20 mg/mL DMSO stock in 95 μL phosphate-buffered saline, 0.45 micron filter, HPLC
Method: Compound solubility was determined as follows: 5 μL of stock solution (at 20 mg/mL in DMSO) was added to 95 μL of phosphate-buffered saline. After being vortexed for about 10 seconds, the solution/suspension was filtered through a 0.45 micron filter and the amount of analyte was quantitated by HPLC. Solubilities (mg/mL) determined were as follows: epothilone D, <0.06; trans-9,10-dehydroepothilone D, <0.06; 21-OH-26-F3-trans-9,10-dehydroepothilone D, 0.1; 21-amino-trans-9,10-dehydroepothilone D, >0.6; 21-amino-26-F3-trans-9,10-dehydroepothilone D, >0.6; 26-F3-trans-9,10-dehydroepothilone D, <0.06; 21-OH-trans-9,10-dehydroepothilone D, 0.1; KOSN 1635, <0.02; KOSN 1632, 0.12.

CYP3A4 = target: T2, CYP3A4 (Homo sapiens, UniProt P08684); assay: Cytochrome P450 inhibition (BD GenTest kit, BFC substrate), CYP3A4; assay type: in vitro ADME
T2 construct: purchased BD GenTest, Woburn, Mass
T2 sequence (P08684 whole entry): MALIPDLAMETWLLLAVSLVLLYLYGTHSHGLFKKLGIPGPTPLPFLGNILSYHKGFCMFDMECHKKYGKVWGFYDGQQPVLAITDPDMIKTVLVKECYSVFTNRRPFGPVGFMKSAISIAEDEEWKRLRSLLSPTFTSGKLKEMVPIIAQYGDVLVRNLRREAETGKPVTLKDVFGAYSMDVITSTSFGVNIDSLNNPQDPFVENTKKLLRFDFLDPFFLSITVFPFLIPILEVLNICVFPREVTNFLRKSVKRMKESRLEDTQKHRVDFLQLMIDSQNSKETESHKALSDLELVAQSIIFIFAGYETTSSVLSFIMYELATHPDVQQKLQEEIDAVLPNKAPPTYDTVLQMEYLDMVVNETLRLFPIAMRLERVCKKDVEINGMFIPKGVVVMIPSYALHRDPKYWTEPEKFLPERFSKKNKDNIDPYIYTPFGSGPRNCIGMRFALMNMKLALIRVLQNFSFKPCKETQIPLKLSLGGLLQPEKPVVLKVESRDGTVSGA
From the text: Following the procedure of Examples 39 (when R=methyl) and 42 (when R=CF3), the additional compounds shown in Table 2 were made by replacing (2-(tert-butyldimethyl-silyloxy)-methylthiazol-4-yl)methyltri-n-butyl-phosphonium chloride with the corresponding phosphonium chloride. Cytotoxicity data (Table 2) was obtained as described in Example 48. Cytochrome P450 inhibition data (Table 3) was obtained using the initial rate method against BFC substrate.
Cytochrome P450 inhibition measurements were performed using a commercially-available kit (BD GenTest, Woburn, Mass.), using BFC as substrate against CYP3A4.

[2] = tested on: Human breast carcinoma cell line MCF-7; assay: SRB cytotoxicity assay, MCF-7; assay type: cell-based; settings: Homo sapiens, MCF7, 72 h; Table 1; 3 days, SRB; read-out: IC50 MCF-7
Method: (§1) Compounds of the invention may be screened for cytotoxicity using conventional assays well known to those skilled in the art. For example, cytotoxicity of the compounds may be determined by the SRB assay as disclosed in Skehan et al., J. Natl. Cancer Inst. 82:1107-1112 (1990), which is incorporated herein by reference. In the SRB assay, the following cultured cells are trypsinized, counted and diluted to the following concentrations per 100 μl with growth medium: MCF-7, 5000; NCI/ADR-Res, 7500; NCI-H460, 5000; A549, 5000; Skov3, 7500; and SF-268, 7500. The cells are seeded at 100 μl/well in 96-well microtiter plates. Twenty-four hours later, 100 μl of a test epothilone compound of the invention (ranging in concentration from 1000 nM to 0.001 nM diluted in growth medium) is added to each well. After incubation, with the compound for a period of days, the cells are fixed with 100 μl of 10% trichloroacetic acid (“TCA”) at 4 degrees for 1 hour, and stained with 0.2% sulforhodamine B (SRB)/1% acetic acid, and the bound SRB is then extracted with 200 μl of 10 mM Tris base. The amount of bound dye is determined by OD 515 nm, which correlates to the total cellular protein contents. The data is analyzed using standard statistical methodologies (such as those available with the software sold as KALEIDA GRAPH® by Synergy Software of Reading, Pa.) and the IC50s are calculated.
(§2) Human breast carcinoma cell line MCF-7, multi-drug resistant breast carcinoma cell line NCI/ADR, were obtained from the National Cancer Institute. Human non-small cell lung cancer cell line A549 and human ovarian cancer cell line SKOV-3 were obtained from American Type Culture Collection (Manassas, Va.). All cell lines were maintained in RPMI-1640 medium (Gibco/BRL, Rockville, Md.) supplemented with 2 mM L-glutamine, 25 mM HEPES and 10% FBS (Hyclone, Logan, Utah). Cells were maintained in a humidified incubator at 37° C. in 5% CO2.
(§3) Tumor cells were seeded in 100 μl at 5000 (MCF-7), 7500 (NCI/ADR), 5000 (A549) and 7500 (SKOV3) cells per well in 96-well plates. Cells were allowed to adhere for 24 hours. Each compound ranging from 0.001 to 1000 nM in 100 μl was added to cells in duplicate wells. After 3 days, cells were fixed at 4° C. for 1 hour with 10% trichloroacetic acid and then stained with 0.2% sulforhodamine B (SRB)/1% acetic acid for 20 minutes at room temperature. The unbound dye was rinsed away with 1% acetic acid, and the bounded SRB was then extracted with 200 μl of 10 mM Tris base. The absorbance was measured at 515 nm using a 96-well microtiter plate reader (Spectra Max 250, Molecular Devices). The IC50 values were calculated using a KaleidaGraph program. The experiments were performed twice.

[3] = Half-life in mouse plasma; settings: fresh mouse plasma
Method: […] At Time Zero, aliquotted 75 μl from each sample and added 150 μl of acetonitrile. Centrifuged the white precipitate at 13500 rpm for 3 minutes. Transferred all the clear supernatant into another microcentrifuge tube and repeated the centrifuging step (13500 rpm/3 min). Carefully pipetted 150 μl of the clear supernatant into labeled HPLC sample tubes and tried to avoid pipetting any protein pellets. The samples were analyzed by HPLC to measure remaining compound at each time point by comparison with authentic standards.

[4] = tested on: multi-drug resistant breast carcinoma cell line NCI/ADR; assay: SRB cytotoxicity assay, NCI/ADR; assay type: cell-based, human; settings: Homo sapiens, NCI/ADR-RES, 72 h; Table 1; 3 days, SRB; read-out: IC50 NCI/ADR
Method: as §1, §2, §3

[5] = tested on: human ovarian cancer cell line SKOV-3; assay: SRB cytotoxicity assay, SKOV3; assay type: cell-based; settings: Homo sapiens, SK-OV-3, 72 h; Table 1; 3 days, SRB; read-out: IC50 SKOV3
Method: as §1, §2, §3

[6] = Plasma protein binding (ultrafiltration); assay type: in vitro ADME; settings: mouse or human plasma (species not given), 37° C.
Method: Plasma protein binding studies were performed as follows. Compounds were dissolved in DMSO, then diluted into either fresh or thawed samples of mouse or human plasma and incubated at 37° C. Time points of 50 μL were mixed with 100 μl of acetonitrile and centrifuged at ˜14000 rpm for 3 minutes. A 100 μL aliquot was removed from the supernatant and set aside for analysis to indicate compound in the total fraction. The remaining supernatant was transferred onto a Microcon ultrafiltration device fitted with a YM10 membrane and centrifuged to separate protein-bound material. A 50 μL aliquot of the protein-free filtrate was mixed with 100 μL of acetonitrile, centrifuged at ˜14000 rpm for 3 minutes, then 100 μL of the supernatant was collected and analyzed to determine the amount of compound not protein bound. The amount of compound in the total sample and in the protein-free fraction were determined by HPLC analysis against authentic standards.

[7] = Half-life in human plasma; settings: fresh human plasma
Method: Half-lives of compounds in fresh mouse and human plasma were determined by dissolving the compounds in DMSO and adding aliquots to samples of mouse or human plasma. At Time Zero, aliquotted 75 μl from each sample and added 150 μl of acetonitrile. Centrifuged the white precipitate at 13500 rpm for 3 minutes. Transferred all the clear supernatant into another microcentrifuge tube and repeated the centrifuging step (13500 rpm/3 min). Carefully pipetted 150 μl of the clear supernatant into labeled HPLC sample tubes and tried to avoid pipetting any protein pellets. The samples were analyzed by HPLC to measure remaining compound at each time point by comparison with authentic standards.

[8] = tested on: Human non-small cell lung cancer cell line A549; assay: SRB cytotoxicity assay, A549; assay type: cell-based; settings: Homo sapiens, A549, 72 h; Table 1; 3 days, SRB; read-out: IC50 A549
Method: as §1, §2, §3

CYP2C9 = target: T3, CYP2C9 (Homo sapiens, UniProt P11712); assay: Cytochrome P450 inhibition, CYP2C9; assay type: in vitro ADME; settings: human
T3 construct: purchased BD GenTest, Woburn, Mass
T3 sequence (P11712 whole entry): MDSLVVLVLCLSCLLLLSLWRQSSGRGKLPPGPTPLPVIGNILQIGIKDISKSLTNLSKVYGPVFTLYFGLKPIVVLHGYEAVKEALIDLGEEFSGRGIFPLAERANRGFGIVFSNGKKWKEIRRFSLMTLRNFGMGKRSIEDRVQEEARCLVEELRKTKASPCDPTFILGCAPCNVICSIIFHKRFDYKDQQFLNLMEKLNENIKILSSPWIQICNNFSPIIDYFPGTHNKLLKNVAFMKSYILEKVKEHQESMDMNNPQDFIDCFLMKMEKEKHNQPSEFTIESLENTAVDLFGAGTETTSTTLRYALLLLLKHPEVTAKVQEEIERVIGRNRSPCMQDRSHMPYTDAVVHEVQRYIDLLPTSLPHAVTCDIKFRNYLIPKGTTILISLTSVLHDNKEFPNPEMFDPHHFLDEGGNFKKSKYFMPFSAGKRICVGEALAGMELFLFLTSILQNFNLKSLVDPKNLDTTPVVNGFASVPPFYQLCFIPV

T1 sequence (P33261 whole entry): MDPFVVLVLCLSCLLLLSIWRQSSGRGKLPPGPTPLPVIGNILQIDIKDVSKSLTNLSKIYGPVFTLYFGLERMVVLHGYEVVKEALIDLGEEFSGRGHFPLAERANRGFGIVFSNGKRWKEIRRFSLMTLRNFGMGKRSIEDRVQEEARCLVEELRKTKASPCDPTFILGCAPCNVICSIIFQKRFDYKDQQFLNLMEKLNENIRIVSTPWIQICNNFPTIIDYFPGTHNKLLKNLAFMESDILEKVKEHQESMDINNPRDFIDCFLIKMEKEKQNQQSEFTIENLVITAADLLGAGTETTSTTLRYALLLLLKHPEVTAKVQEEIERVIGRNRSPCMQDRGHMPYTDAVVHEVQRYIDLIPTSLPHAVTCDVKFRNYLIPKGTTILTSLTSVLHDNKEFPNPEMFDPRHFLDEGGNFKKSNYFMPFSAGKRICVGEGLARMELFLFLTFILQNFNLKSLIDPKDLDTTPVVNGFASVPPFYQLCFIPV

C/C1=C/C[C@@H](/C(C)=C/c2csc(CO)n2)OC(=O)C[C@H](O)C(C)(C)C(=O)[C@H](C)[C@@H](O)[C@@H](C)/C=C/C1 [21-OH 9,10-dehydroepothilone D, 21-hydroxy-9,10-dehydro-epothilone D]
IC50 (CYP2C19): 5600 nM | solubility [1]: 100 µg/mL (≈ 198 µM) | IC50 (CYP3A4): 800 nM | IC50 [2]: 2.3 nM | half-life [3]: 17.6 h | IC50 [4]: 14 nM | IC50 [5]: 5.7 nM | percentage of compound protein bound [6]: 94.2% | half-life [7]: > 24 h | IC50 [8]: 3.8 nM | IC50 (CYP2C9): 22000 nM

C/C(=C\c1csc(CO)n1)[C@@H]1C/C=C(/C(F)(F)F)C/C=C/[C@H](C)[C@H](O)[C@@H](C)C(=O)C(C)(C)[C@@H](O)CC(=O)O1 [21-hydroxy-9,10-dehydro-26-trifluoroepothilone D]
IC50 (CYP2C19): 20500 nM | solubility [1]: 100 µg/mL (≈ 179 µM) | IC50 (CYP3A4): 1000 nM | IC50 [2]: 3.6 nM | half-life [3]: 6.32 h | IC50 [4]: 65 nM | IC50 [5]: 7.9 nM | percentage of compound protein bound [6]: 92.8% | half-life [7]: > 24 h | IC50 [8]: 6.1 nM | IC50 (CYP2C9): 17300 nM

C/C1=C/C[C@@H](/C(C)=C/c2csc(C)n2)OC(=O)C[C@H](O)C(C)(C)C(=O)[C@H](C)[C@@H](O)[C@@H](C)CCC1 [Epothilone D, Desoxyepothilone B, reference compound]
IC50 (CYP2C19): 1600 to 3400 nM | solubility [1]: < 60 µg/mL | IC50 (CYP3A4): 2400 nM | IC50 [2]: 6.8 nM | half-life [3]: 0.817 h | IC50 [4]: 23 nM | IC50 [5]: 39 nM | percentage of compound protein bound [6]: 98.5% | half-life [7]: > 24 h | IC50 [8]: 25 nM | IC50 (CYP2C9): 9000 to 12000 nM

C/C1=C/C[C@@H](/C(C)=C/c2ccccn2)OC(=O)C[C@H](O)C(C)(C)C(=O)[C@H](C)[C@@H](O)[C@@H](C)/C=C/C1 [KOSN 1632, 17-des(2-methyl-4-thiazolyl)-17-(2-pyridyl)-9,10-dehydropeothilone D]
IC50 (CYP2C19): 3050 nM | solubility [1]: 120 µg/mL (≈ 256 µM) | IC50 (CYP3A4): 2520 nM | IC50 [2]: 0.87 nM | half-life [3]: 0.467 h | IC50 [4]: 4.6 nM | IC50 [5]: 4.4 nM | percentage of compound protein bound [6]: 89.4% | half-life [7]: > 24 h | IC50 [8]: 3.3 nM | IC50 (CYP2C9): 15000 nM

C/C1=C/C[C@@H](/C(C)=C/c2nc3ccccc3s2)OC(=O)C[C@H](O)C(C)(C)C(=O)[C@H](C)[C@@H](O)[C@@H](C)/C=C/C1 [KOSN 1635, 17-des(2-methyl-4-thiazolyl)-17-(2-benzothiazolyl)-9,10-dehydropeothilone D]
IC50 (CYP2C19): 3270 nM | solubility [1]: < 20 µg/mL | IC50 (CYP3A4): 3120 nM | IC50 [2]: 1.1 nM | half-life [3]: 0.967 h | IC50 [4]: 5.6 nM | IC50 [5]: 3.4 nM | percentage of compound protein bound [6]: 99.7% | half-life [7]: > 24 h | IC50 [8]: 4.2 nM | IC50 (CYP2C9): 4100 nM
